For this experiment, the target named is T1, human OX2R (Homo sapiens, UniProt O43614).
T1 construct: expressed in transfected cells; host or cells: Chinese hamster ovary (CHO) cells, kept under G418 selection
T1 sequence (O43614 1-444): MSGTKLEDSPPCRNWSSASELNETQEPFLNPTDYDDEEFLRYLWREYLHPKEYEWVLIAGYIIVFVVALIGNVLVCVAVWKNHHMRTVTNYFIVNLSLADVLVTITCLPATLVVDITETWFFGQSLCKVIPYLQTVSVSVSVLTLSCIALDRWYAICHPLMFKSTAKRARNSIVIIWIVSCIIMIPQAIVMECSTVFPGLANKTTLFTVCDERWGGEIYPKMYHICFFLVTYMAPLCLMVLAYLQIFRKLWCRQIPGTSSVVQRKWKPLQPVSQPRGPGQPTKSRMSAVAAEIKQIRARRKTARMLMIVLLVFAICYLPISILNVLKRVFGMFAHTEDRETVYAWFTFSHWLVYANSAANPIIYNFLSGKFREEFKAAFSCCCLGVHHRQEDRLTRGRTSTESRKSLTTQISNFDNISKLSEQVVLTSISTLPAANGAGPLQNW
In words: IPOne (IP-1 accumulation) assay of orexin receptor agonist activity in CHO cells expressing human OX2R. The conditions noted are these: for pIC50: CHO cells expressing human OX2R, IP-One assay, 2 hours incubation, four parameter logistic fit, read-out: hOX2R_IP IC50; for Emax: CHO, percent activity at maximum tested concentration, relative to reference compound at 1 uM (100% activity) for human OX2R. Format: cell-based.

The structures appear in SMILES notation. pIC50: −log10 of the molar value.

Regarding `COc1cccc(S(=O)(=O)N2CCN(C(=O)c3cccs3)C(C(=O)NCc3ccc4ccccc4c3)C2)c1` (centres unmarked) [Example 89-8, 4-[(3-methoxyphenyl)sulfonyl]-N-[(naphthalen-2-yl)methyl]-1-(thiophene-2-carbonyl)piperazine-2-carboxamide], the pIC50 was 5.06 and the maximal response (Emax) is 75.9%.

With `O=C(NCc1ccc2ccccc2c1)C1CN(S(=O)(=O)c2ccc(F)cc2)CCN1C(=O)c1cccs1` (centres unmarked) [Example 89-9, 4-[(4-fluorophenyl)sulfonyl]-N-[(naphthalen-2-yl)methyl]-1-(thiophene-2-carbonyl)piperazine-2-carboxamide], the pIC50 is 5.26 and the Emax came to 89.6%.

On to `O=C(NCc1ccc2ccccc2c1)C1CN(S(=O)(=O)c2cccc(F)c2)CCN1C(=O)c1cccs1` (centres unmarked) [Example 89-10, 4-[(3-fluorophenyl)sulfonyl]-N-[(naphthalen-2-yl)methyl]-1-(thiophene-2-carbonyl)piperazine-2-carboxamide], for which the negative logarithm of the IC50 (pIC50) is 5.28 and the maximal effect (Emax) was 83.6%.

Turning to `O=C(NCc1ccc2ccccc2c1)C1CN(S(=O)(=O)c2ccccc2F)CCN1C(=O)c1cccs1` (centres unmarked) [Example 89-11, 4-[(2-fluorophenyl)sulfonyl]-N-[(naphthalen-2-yl)methyl]-1-(thiophene-2-carbonyl)piperazine-2-carboxamide], the negative-log IC50 (pIC50) is 5.30 and the maximum response (Emax) was 94.5%.

For orientation: pIC50 means the negative decadic logarithm of the IC50, by convention in mol/L. As a reminder, the Emax is the maximal effect, on the per cent scale that the assay sets.

The values are drawn from patent US20250282760A1 (Merck Sharp & Dohme LLC, priority 2022, published 2025).
